From the OligoGym collection come the findings set out here.

HELM strings list units from the 5' end as sugar, base in round brackets, then linkage (d deoxyribose, r ribose, m 2'-O-methyl, p phosphodiester). Strings are as the collection lists them, not checked against the first reports. ss, as = sense and antisense strand; [lna] = locked nucleic acid (LNA); [una] = unlocked nucleic acid; [fl2r] = 2'-fluoro
Note: test system not given here.

The conditions of this series: siRNA.
On to “RNA1{r(G)p.r(G)p.r(A)p.r(C)p.m(U)p.r(A)p.r(C)p.m(U)p.r(A)p.r(A)p.r(C)p.r(C)p.r(U)p.r(C)p.m(C)p.r(A)p.r(G)p.r(U)p.r(U)p.r(T)p.r(T)}|RNA2{r(A)p.r(A)p.r(C)p.m(U)p.r(G)p.r(G)p.r(A)p.r(G)p.r(G)p.r(U)p.m(U)p.r(A)p.r(G)p.m(U)p.r(A)p.r(G)p.r(U)p.r(C)p.r(C)p.r(T)p.r(T)}$$$RNA1{StrandType:ss}|RNA2{StrandType:as}$”, for which the target mRNA knockdown worked out at 69%.
Consider “RNA1{m(A)p.m(A)p.m(G)p.m(G)p.m(A)p.m(G)p.m(A)p.m(U)p.m(C)p.m(A)p.m(A)p.m(C)p.m(A)p.m(U)p.m(U)p.m(U)p.m(U)p.m(C)p.m(A)p.r(T)p.r(T)}|RNA2{m(U)p.r(G)p.r(A)p.r(A)p.r(A)p.r(A)p.m(U)p.r(G)p.r(U)p.r(U)p.r(G)p.r(A)p.m(U)p.m(C)p.m(U)p.m(C)p.m(C)p.m(U)p.m(U)p.r(T)p.r(T)}$$$RNA1{StrandType:ss}|RNA2{StrandType:as}$”, for which the target mRNA knockdown was determined as 29%.
Next, “RNA1{r(C)p.r(U)p.r(C)p.r(C)p.r(G)p.r(A)p.m(C)p.m(A)p.r(G)p.r(A)p.m(U)p.r(G)p.r(A)p.r(A)p.r(G)p.r(G)p.r(A)p.r(A)p.r(A)p.r(T)p.r(T)}|RNA2{r(U)p.r(U)p.r(U)p.r(C)p.r(C)p.r(U)p.r(U)p.m(C)p.r(A)p.r(U)p.r(C)p.m(U)p.m(G)p.r(U)p.r(C)p.r(G)p.r(G)p.r(A)p.r(G)p.r(T)p.r(T)}$$$RNA1{StrandType:ss}|RNA2{StrandType:as}$”: 70%.
Next, “RNA1{r(G)p.m(U)p.r(A)p.r(C)p.r(U)p.r(C)p.r(U)p.r(G)p.r(A)p.r(U)p.r(G)p.r(A)p.r(G)p.r(G)p.r(A)p.r(A)p.r(G)p.r(A)p.r(G)p.r(T)p.r(T)}|RNA2{r(C)p.r(U)p.r(C)p.r(U)p.r(U)p.r(C)p.r(C)p.r(U)p.r(C)p.r(A)p.r(U)p.r(C)p.r(A)p.r(G)p.r(A)p.r(G)p.r(U)p.r(A)p.r(C)p.r(T)p.r(T)}$$$RNA1{StrandType:ss}|RNA2{StrandType:as}$”: 69%; “RNA1{r(C)p.r(U)p.r(U)p.r(A)p.r(C)p.r(G)p.r(C)p.r(U)p.r(G)p.r(A)p.r(G)p.r(U)p.r(A)p.r(C)p.r(U)p.r(U)p.r(C)p.r(G)p.r(A)p.r(T)p.r(T)}|RNA2{r(U)p.r(C)p.r(G)p.r(A)p.r(A)p.r(G)p.r(U)p.r(A)p.r(C)p.r(U)p.[lna](C)p.r(A)p.r(G)p.r(C)p.r(G)p.r(U)p.r(A)p.r(A)p.r(G)p.r(T)p.r(T)}$$$RNA1{StrandType:ss}|RNA2{StrandType:as}$”: 50%; “RNA1{m(G)p.r(A)p.m(A)p.r(G)p.m(G)p.r(G)p.m(G)p.r(A)p.m(A)p.r(A)p.m(U)p.r(C)p.m(U)p.r(G)p.m(U)p.r(G)p.m(G)p.r(U)p.m(U)p.r(T)p.r(T)}|RNA2{r(A)p.r(A)p.r(C)p.r(C)p.r(A)p.r(C)p.r(A)p.r(G)p.r(A)p.r(U)p.r(U)p.r(U)p.r(C)p.r(C)p.r(C)p.r(C)p.r(U)p.r(U)p.r(C)p.r(T)p.r(T)}$$$RNA1{StrandType:ss}|RNA2{StrandType:as}$”: 41%.
Next, “RNA1{r(C)p.r(U)p.r(U)p.r(A)p.r(C)p.r(G)p.r(C)p.r(U)p.r(G)p.r(A)p.r(G)p.r(U)p.r(A)p.r(C)p.r(U)p.r(U)p.r(C)p.r(G)p.r(A)p.r(T)p.r(T)}|RNA2{r(U)p.r(C)p.r(G)p.r(A)p.[lna](A)p.r(G)p.r(U)p.r(A)p.r(C)p.r(U)p.r(C)p.r(A)p.r(G)p.r(C)p.r(G)p.r(U)p.r(A)p.r(A)p.r(G)p.r(T)p.r(T)}$$$RNA1{StrandType:ss}|RNA2{StrandType:as}$”: 83%; “RNA1{r(A)p.r(A)p.r(C)p.r(C)p.r(C)p.r(A)p.r(C)p.r(C)p.r(A)p.r(C)p.r(A)p.r(G)p.r(C)p.m(U)p.r(A)p.r(G)p.r(A)p.r(A)p.r(C)p.m(U)p.m(U)}|RNA2{r(A)p.r(A)p.r(G)p.r(U)p.r(U)p.r(C)p.m(U)p.r(A)p.r(G)p.r(C)p.r(U)p.r(G)p.r(U)p.r(G)p.r(G)p.r(U)p.r(G)p.r(G)p.r(G)p.r(U)p.r(U)}$$$RNA1{StrandType:ss}|RNA2{StrandType:as}$”: 81%; “RNA1{m(A)p.r(A)p.m(G)p.r(G)p.m(A)p.r(A)p.m(C)p.r(G)p.m(G)p.r(G)p.m(G)p.r(A)p.m(C)p.r(A)p.m(C)p.r(U)p.m(U)p.r(A)p.m(C)p.r(T)p.r(T)}|RNA2{r(G)p.r(U)p.r(A)p.r(A)p.r(G)p.r(U)p.r(G)p.r(U)p.r(C)p.r(C)p.r(C)p.r(C)p.r(G)p.r(U)p.r(U)p.r(C)p.r(C)p.r(U)p.r(U)p.r(T)p.r(T)}$$$RNA1{StrandType:ss}|RNA2{StrandType:as}$”: 12%.
Substance “RNA1{[lna](G)p.r(G)p.r(C)p.r(C)p.r(U)p.r(U)p.r(U)p.r(C)p.r(A)p.r(C)p.r(U)p.r(A)p.r(C)p.r(U)p.r(C)p.r(C)p.r(U)p.r(A)p.r(C)p.r(G)p.r(A)}|RNA2{r(G)p.r(U)p.r(A)p.r(G)p.r(G)p.r(A)p.r(G)p.r(U)p.r(A)p.r(G)p.r(U)p.r(G)p.r(A)p.r(A)p.r(A)p.r(G)p.r(G)p.r(C)p.r(C)p.r(A)p.r(G)}$$$RNA1{StrandType:ss}|RNA2{StrandType:as}$” displayed a target mRNA knockdown of 86%.
Substance “RNA1{m(C)p.r(U)p.m(C)p.r(C)p.m(G)p.r(A)p.m(C)p.r(A)p.m(G)p.r(A)p.m(U)p.r(G)p.m(A)p.r(A)p.m(G)p.r(G)p.m(A)p.r(A)p.m(A)p.r(T)p.r(T)}|RNA2{r(U)p.r(U)p.r(U)p.r(C)p.r(C)p.r(U)p.r(U)p.r(C)p.m(A)p.r(U)p.r(C)p.r(U)p.r(G)p.r(U)p.r(C)p.r(G)p.r(G)p.m(A)p.r(G)p.r(T)p.r(T)}$$$RNA1{StrandType:ss}|RNA2{StrandType:as}$” came in with a target mRNA knockdown of 46%.
Take “RNA1{r(G)p.r(A)p.r(A)p.r(A)p.r(C)p.r(U)p.r(G)p.r(G)p.[fl2r](U)p.r(A)p.r(C)p.r(U)p.r(U)p.r(U)p.r(C)p.r(C)p.r(C)p.r(C)p.r(C)p.r(T)p.r(T)}|RNA2{r(G)p.r(G)p.r(G)p.r(G)p.r(G)p.r(A)p.r(A)p.r(A)p.r(G)p.[fl2r](U)p.r(A)p.r(C)p.r(C)p.r(A)p.r(G)p.r(U)p.r(U)p.r(U)p.r(C)p.r(T)p.r(T)}$$$RNA1{StrandType:ss}|RNA2{StrandType:as}$”: the target mRNA knockdown stood at 58%.
Next, “RNA1{r(C)p.r(U)p.r(A)p.r(G)p.r(A)p.r(G)p.r(G)p.r(A)p.r(U)p.r(C)p.r(U)p.r(U)p.r(G)p.r(A)p.r(A)p.r(G)p.r(A)p.r(C)p.r(C)p.r(T)p.r(T)}|RNA2{r(G)p.r(G)p.r(U)p.r(C)p.r(U)p.r(U)p.[fl2r](C)p.r(A)p.r(A)p.r(G)p.r(A)p.r(U)p.r(C)p.r(C)p.r(U)p.r(C)p.[fl2r](U)p.r(A)p.r(G)p.r(T)p.r(T)}$$$RNA1{StrandType:ss}|RNA2{StrandType:as}$”: 95%.
Next, “RNA1{r(C)p.r(U)p.r(U)p.r(A)p.r(C)p.r(G)p.r(C)p.r(U)p.r(G)p.r(A)p.r(G)p.r(U)p.r(A)p.r(C)p.r(U)p.r(U)p.r(C)p.r(G)p.r(A)p.r(T)p.r(T)}|RNA2{r(U)p.r(C)p.r(G)p.r(A)p.r(A)p.r(G)p.r(U)p.r(A)p.r(C)p.r(U)p.r(C)p.r(A)p.r(G)p.r(C)p.r(G)p.r(U)p.r(A)p.r(A)p.r(G)p.[lna](T)p.[lna](T)}$$$RNA1{StrandType:ss}|RNA2{StrandType:as}$”: 93%.
The substance “RNA1{r(A)p.r(A)p.r(G)p.r(G)p.r(A)p.r(C)p.r(C)p.m(U)p.r(A)p.r(G)p.r(A)p.r(G)p.r(G)p.r(A)p.r(G)p.r(U)p.r(C)p.r(A)p.r(C)p.r(T)p.r(T)}|RNA2{r(G)p.m(U)p.r(G)p.r(A)p.r(C)p.r(U)p.r(C)p.r(C)p.r(U)p.r(C)p.r(U)p.r(A)p.r(G)p.r(G)p.r(U)p.r(C)p.r(C)p.r(U)p.r(U)p.r(T)p.r(T)}$$$RNA1{StrandType:ss}|RNA2{StrandType:as}$” displayed a target mRNA knockdown of 80%.
“RNA1{r(A)p.r(C)p.r(A)p.r(U)p.r(A)p.r(G)p.r(A)p.r(G)p.r(G)p.r(A)p.r(A)p.r(G)p.r(A)p.r(C)p.r(G)p.r(C)p.r(G)p.r(G)p.r(A)p.r(T)p.r(T)}|RNA2{r(U)p.r(C)p.r(C)p.r(G)p.r(C)p.r(G)p.r(U)p.r(C)p.r(U)p.r(U)p.r(C)p.r(C)p.r(U)p.r(C)p.[fl2r](U)p.r(A)p.r(U)p.r(G)p.r(U)p.r(T)p.r(T)}$$$RNA1{StrandType:ss}|RNA2{StrandType:as}$”: the target mRNA knockdown stood at 89%.
For “RNA1{r(C)p.m(U)p.m(A)p.r(C)p.r(C)p.r(U)p.r(U)p.r(C)p.r(U)p.r(C)p.r(C)p.r(U)p.r(C)p.r(U)p.r(U)p.r(C)p.r(U)p.r(C)p.r(C)p.r(T)p.r(T)}|RNA2{r(G)p.r(G)p.r(A)p.r(G)p.r(A)p.r(A)p.r(G)p.r(A)p.r(G)p.r(G)p.r(A)p.r(G)p.r(A)p.r(A)p.r(G)p.r(G)p.m(U)p.m(A)p.r(G)p.r(T)p.r(T)}$$$RNA1{StrandType:ss}|RNA2{StrandType:as}$”, the target mRNA knockdown stood at 68%.
Next, “RNA1{m(G)p.r(G)p.m(A)p.r(A)p.m(G)p.r(U)p.m(A)p.r(A)p.m(G)p.r(G)p.m(A)p.r(C)p.m(C)p.r(A)p.m(G)p.r(A)p.m(G)p.r(A)p.m(C)p.r(T)p.r(T)}|RNA2{m(G)p.r(U)p.r(C)p.r(U)p.r(C)p.r(U)p.m(G)p.m(G)p.r(U)p.r(C)p.r(C)p.r(U)p.r(U)p.r(A)p.r(C)p.r(U)p.r(U)p.r(C)p.r(C)p.r(T)p.r(T)}$$$RNA1{StrandType:ss}|RNA2{StrandType:as}$”: 23%; “RNA1{r(G)p.r(G)p.r(A)p.r(C)p.r(A)p.r(U)p.r(U)p.r(C)p.r(A)p.r(G)p.r(A)p.r(A)p.r(C)p.r(A)p.r(A)p.r(G)p.r(A)p.r(A)p.r(A)p.[una](U)p.[una](U)}|RNA2{r(U)p.[una](U)p.r(U)p.r(C)p.r(U)p.r(U)p.r(G)p.r(U)p.r(U)p.r(C)p.r(U)p.r(G)p.r(A)p.r(A)p.r(U)p.r(G)p.r(U)p.r(C)p.r(C)p.[una](U)p.[una](U)}$$$RNA1{StrandType:ss}|RNA2{StrandType:as}$”: 36%.
Next, “RNA1{r(G)p.r(A)p.r(G)p.r(G)p.r(A)p.r(A)p.r(G)p.r(A)p.m(U)p.r(G)p.r(A)p.r(G)p.r(U)p.r(U)p.r(G)p.r(U)p.r(A)p.r(C)p.r(C)p.r(T)p.r(T)}|RNA2{r(G)p.r(G)p.r(U)p.r(A)p.m(C)p.r(A)p.r(A)p.r(C)p.r(U)p.m(C)p.r(A)p.r(U)p.r(C)p.r(U)p.r(U)p.r(C)p.r(C)p.r(U)p.r(C)p.r(T)p.r(T)}$$$RNA1{StrandType:ss}|RNA2{StrandType:as}$”: 77%.
